Source: US9833497B2, “Human originated EGF domain proteins and use of the same” (CHENGDU SOURCEBIO LIMITED-LIABILITY COMPANY, priority 2013, dated 2017)

Assays:
Assay type in all cases: cell-based
[1] = test system: Enterobacter cloacae; assay: MIC against Gram-negative bacteria: Enterobacter cloacae
How it was run: (§1)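 MIC, the lowest recombinant protein concentration giving no bacterial growth, found by two-fold serial dilution of human EGF-domain proteins in triplicate. Inoculum 5×10^5 CFU/mL in LB from cultures at McFarland 0.5; plates incubated at 37° C, 175 rpm shaking.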

[2] = test system: E. coli DH5α; assay: Antibacterial activity: MIC and growth curve against E. coli DH5α in 96-well plate; settings: minimal inhibitory concentration against E. coli DH5α; 96-well plate, 5×10^5 CFU/mL, 37° C., judged after 8 h
How it was run: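 Log-phase bacteria (OD600 ~0.5) resuspended in LB at 5×10^5 CFU/mL, exposed to recombinant protein at 50, 25, 12.5 μg/mL final in triplicate, 37 °C shaking at 175 rpm. OD600 read every 30 min; MIC is lowest concentration showing no growth.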

[3] = test system: Klebsiella pneumonia; assay: MIC against Gram-negative bacteria: Klebsiella pneumonia
How it was run: as §1

[4] = test system: Aeromonas hydrophila; assay: MIC against Gram-negative bacteria: Aeromonas hydrophila
How it was run: as §1

[5] = test system: E. coli BL21; assay: MIC against Gram-negative bacteria: E. coli BL21; settings: for MIC / MIC (μg/mL) E. coli BL21: E. coli BL21
How it was run: as §1

[6] = test system: Proteus mirabilis; assay: MIC against Gram-negative bacteria: Proteus mirabilis
How it was run: as §1

[7] = test system: Moraxella catarrhalis; assay: MIC against Gram-negative bacteria: Moraxella catarrhalis
How it was run: as §1

[8] = test system: Citrobacter diversus; assay: MIC against Gram-negative bacteria: Citrobacter diversus
How it was run: as §1

[9] = test system: Serratia marcescens; assay: MIC against Gram-negative bacteria: Serratia marcescens
How it was run: as §1

[10] = test system: Pseudomonas aeruginosa; assay: MIC against Gram-negative bacteria: Pseudomonas aeruginosa
How it was run: as §1

[11] = test system: Proteus vulgaris; assay: MIC against Gram-negative bacteria: Proteus vulgaris
How it was run: as §1

[12] = E. cloacae, 10 h cultivation at 37° C.
[13] = K. pneumonia, 10 h cultivation at 37° C.
[14] = A. hydrophila, 10 h cultivation at 37° C.
[15] = P. mirabilis, 10 h cultivation at 37° C.
[16] = M. catarrhalis, 10 h cultivation at 37° C.
[17] = C. diversus, 10 h cultivation at 37° C.
[18] = S. marcescens, 10 h cultivation at 37° C.
[19] = P. aeruginosa, 10 h cultivation at 37° C.
[20] = P. vulgaris, 10 h cultivation at 37° C.
[21] = E. cloacae, 10 h cultivation at 37° C., 5×10^5 CFU/mL
[22] = K. pneumonia, 10 h cultivation at 37° C., 5×10^5 CFU/mL
[23] = A. hydrophila, 10 h cultivation at 37° C., 5×10^5 CFU/mL
[24] = 10 h cultivation at 37° C., 5×10^5 CFU/mL
[25] = P. mirabilis, 10 h cultivation at 37° C., 5×10^5 CFU/mL
[26] = M. catarrhalis, 10 h cultivation at 37° C., 5×10^5 CFU/mL
[27] = C. diversus, 10 h cultivation at 37° C., 5×10^5 CFU/mL
[28] = S. marcescens, 10 h cultivation at 37° C., 5×10^5 CFU/mL
[29] = P. aeruginosa, 10 h cultivation at 37° C., 5×10^5 CFU/mL
[30] = P. vulgaris, 10 h cultivation at 37° C., 5×10^5 CFU/mL
[31] = 10 h cultivation at 37° C., 5×10^5 CFU/mL, two-fold serial dilution
[32] = 96-well plate, 5×10^5 CFU/mL, 37° C., 10 h
[33] = Enterobacter cloacae, 96-well plate, 5×10^5 CFU/mL, 37° C., 10 h
[34] = Klebsiella pneumonia, 96-well plate, 5×10^5 CFU/mL, 37° C., 10 h
[35] = Aeromonas hydrophila, 96-well plate, 5×10^5 CFU/mL, 37° C., 10 h
[36] = Proteus mirabilis, 96-well plate, 5×10^5 CFU/mL, 37° C., 10 h
[37] = Moraxella catarrhalis, 96-well plate, 5×10^5 CFU/mL, 37° C., 10 h
[38] = Citrobacter diversus, 96-well plate, 5×10^5 CFU/mL, 37° C., 10 h
[39] = Serratia marcescens, 96-well plate, 5×10^5 CFU/mL, 37° C., 10 h
[40] = Pseudomonas aeruginosa, 96-well plate, 5×10^5 CFU/mL, 37° C., 10 h
[41] = Proteus vulgaris, 96-well plate, 5×10^5 CFU/mL, 37° C., 10 h

PRT969 (LLSPCTPNPCEHGGRCESAPGQLPVCSCPQGWQGPRCQ; listed as Homo sapiens)
50 mg/L: MIC [2] | MIC [3, 13] | MIC [6, 15]
25 mg/L: MIC [1, 12] | MIC [4, 14] | MIC [7, 16] | MIC [10, 19] | MIC [11, 20]
12.5 mg/L: MIC ([5]; 10 h cultivation at 37° C.) | MIC [8, 17] | MIC [9, 18]

PRT783 (WGPNCSLPCYCKNGASCSPDDGICECAPGFRGTTCQ; listed as Homo sapiens)
25 µg/mL: MIC (μg/mL) E. cloacae [1, 21] | MIC (μg/mL) P. mirabilis [6, 25] | MIC (μg/mL) C. diversus [8, 27]
25 mg/L: MIC [2]
12.5 µg/mL: MIC (μg/mL) K. pneumonia [3, 22] | MIC (μg/mL) E. coli BL21 [5, 24] | MIC (μg/mL) M. catarrhalis [7, 26] | MIC (μg/mL) S. marcescens [9, 28]
50 µg/mL: MIC (μg/mL) A. hydrophila [4, 23] | MIC (μg/mL) P. aeruginosa [10, 29] | MIC (μg/mL) P. vulgaris [11, 30]

PRT1091 (DVNECSSNPCQNGGTCENLPGNYTCHCPFDNLSRTFYGGRDCS; listed as Homo sapiens)
50 mg/L: MIC E. cloacae [1, 31] | MIC E. coli BL21 [5, 31] | MIC P. mirabilis [6, 31]
25 mg/L: MIC K. pneumonia [3, 31] | MIC A. hydrophila [4, 31] | MIC M. catarrhalis [7, 31] | MIC P. vulgaris [11, 31]
12.5 mg/L: MIC [2] | MIC C. diversus [8, 31] | MIC S. marcescens [9, 31] | MIC P. aeruginosa [10, 31]

PRT835 (DVDECASSRGGCEHHCTNLAGSFQCSCEAGYRLHEDRRGCS; listed as Homo sapiens)
50 µg/mL: MIC (μg/mL) E. cloacae [1, 21] | MIC (μg/mL) E. coli BL21 [5, 24] | MIC (μg/mL) P. mirabilis [6, 25]
25 µg/mL: MIC (μg/mL) A. hydrophila [4, 23] | MIC (μg/mL) M. catarrhalis [7, 26] | MIC (μg/mL) S. marcescens [9, 28] | MIC (μg/mL) P. aeruginosa [10, 29]
25 mg/L: MIC [2]
12.5 µg/mL: MIC (μg/mL) K. pneumonia [3, 22] | MIC (μg/mL) C. diversus [8, 27] | MIC (μg/mL) P. vulgaris [11, 30]

PRT721 (DIDECTEMPFVCSQKCENVIGSYICKCAPGYLREPDGKTCR; listed as Homo sapiens)
50 mg/L: MIC K. pneumonia [3, 32] | MIC M. catarrhalis [7, 32] | MIC S. marcescens [9, 32]
12.5 mg/L: MIC A. hydrophila [4, 32] | MIC E. coli BL21 [5, 32] | MIC P. mirabilis [6, 32] | MIC P. vulgaris [11, 32]
25 mg/L: MIC E. cloacae [1, 32] | MIC [2] | MIC C. diversus [8, 32] | MIC P. aeruginosa [10, 32]

PRT216 (DIDECTAGTHNCRADQVCINLRGSFACQCPPGYQKRGEQCV; listed as Homo sapiens)
12.5 µg/mL: MIC (μg/mL) E. cloacae [1, 21] | MIC (μg/mL) E. coli BL21 [5, 24] | MIC (μg/mL) C. diversus [8, 27] | MIC (μg/mL) P. aeruginosa [10, 29] | MIC (μg/mL) P. vulgaris [11, 30]
12.5 mg/L: MIC [2]
25 µg/mL: MIC (μg/mL) P. mirabilis [6, 25] | MIC (μg/mL) S. marcescens [9, 28]
50 µg/mL: MIC (μg/mL) K. pneumonia [3, 22] | MIC (μg/mL) A. hydrophila [4, 23] | MIC (μg/mL) M. catarrhalis [7, 26]

PRT643 (RVVICHLPCMNGGQCSSRDKCQCPPNFTGKLCQ; listed as Homo sapiens)
12.5 mg/L: MIC E. cloacae [1, 32] | MIC [2] | MIC P. mirabilis [6, 32]
50 mg/L: MIC C. diversus [8, 32] | MIC S. marcescens [9, 32] | MIC P. aeruginosa [10, 32]
25 mg/L: MIC K. pneumonia [3, 32] | MIC A. hydrophila [4, 32] | MIC E. coli BL21 [5, 32] | MIC M. catarrhalis [7, 32] | MIC P. vulgaris [11, 32]

PRT811 (FGKNCSFSCSCQNGGTCDSVTGACRCPPGVSGTNCE; listed as Homo sapiens)
25 µg/mL: MIC (μg/mL) E. coli BL21 [5, 24] | MIC (μg/mL) P. mirabilis [6, 25] | MIC (μg/mL) S. marcescens [9, 28] | MIC (μg/mL) P. vulgaris [11, 30]
12.5 µg/mL: MIC (μg/mL) E. cloacae [1, 21] | MIC (μg/mL) K. pneumonia [3, 22] | MIC (μg/mL) A. hydrophila [4, 23] | MIC (μg/mL) M. catarrhalis [7, 26] | MIC (μg/mL) C. diversus [8, 27] | MIC (μg/mL) P. aeruginosa [10, 29]
12.5 mg/L: MIC [2]

PRT135 (PGHCSSYGSICHNGGKCVEKHNGYLCDCTNSPYEGPFCK; listed as Homo sapiens)
25 µg/mL: MIC (μg/mL) E. cloacae [1, 33] | MIC (μg/mL) P. mirabilis [6, 36] | MIC (μg/mL) C. diversus [8, 38] | MIC (μg/mL) P. aeruginosa [10, 40]
25 mg/L: MIC [2]
12.5 µg/mL: MIC (μg/mL) K. pneumonia [3, 34] | MIC (μg/mL) A. hydrophila [4, 35] | MIC (μg/mL) E. coli BL21 [5, 32] | MIC (μg/mL) P. vulgaris [11, 41]
50 µg/mL: MIC (μg/mL) M. catarrhalis [7, 37] | MIC (μg/mL) S. marcescens [9, 39]

PRT628 (CTCNQHGTCDPNTGICVCSHHTEGPSCERCLPGFYGNPFAGQADDCQP; listed as Homo sapiens)
12.5 mg/L: MIC [2] | MIC K. pneumonia [3, 32] | MIC A. hydrophila [4, 32] | MIC E. coli BL21 [5, 32] | MIC M. catarrhalis [7, 32] | MIC P. vulgaris [11, 32]
25 mg/L: MIC E. cloacae [1, 32] | MIC P. mirabilis [6, 32] | MIC C. diversus [8, 32] | MIC S. marcescens [9, 32] | MIC P. aeruginosa [10, 32]

PRT979 (LPDPCLSSPCAHGARCSVGPDGRFLCSCPPGYQGRSCR; listed as Homo sapiens)
50 mg/L: MIC [1, 12] | MIC [2] | MIC [10, 19]
25 mg/L: MIC [7, 16] | MIC [11, 20]
12.5 mg/L: MIC [3, 13] | MIC [4, 14] | MIC ([5]; 10 h cultivation at 37° C.) | MIC [6, 15] | MIC [9, 18]
100 mg/L: MIC [8, 17]

PRT893 (NINECSSQPCRHGGTCQDRDNAYLCFCLKGTTGPNCE; listed as Homo sapiens)
25 µg/mL: MIC (μg/mL) K. pneumonia [3, 22] | MIC (μg/mL) A. hydrophila [4, 23] | MIC (μg/mL) E. coli BL21 [5, 24] | MIC (μg/mL) M. catarrhalis [7, 26]
50 µg/mL: MIC (μg/mL) C. diversus [8, 27] | MIC (μg/mL) P. aeruginosa [10, 29] | MIC (μg/mL) P. vulgaris [11, 30]
12.5 mg/L: MIC [2]
12.5 µg/mL: MIC (μg/mL) E. cloacae [1, 21] | MIC (μg/mL) P. mirabilis [6, 25] | MIC (μg/mL) S. marcescens [9, 28]

PRT502 (CECHGHAAECNVHGVCIACAHNTTGVHCEQCLPGFYGEPSRGTPGDCQP; listed as Homo sapiens)
12.5 mg/L: MIC against E. cloacae [1, 32] | MIC against K. pneumonia [3, 32] | MIC against A. hydrophila [4, 32] | MIC against E. coli BL21 [5, 32] | MIC against P. mirabilis [6, 32] | MIC against M. catarrhalis [7, 32] | MIC against C. diversus [8, 32] | MIC against P. aeruginosa [10, 32]
50 mg/L: MIC against P. vulgaris [11, 32]
25 mg/L: MIC [2] | MIC against S. marcescens [9, 32]

PRT15 (GDHPCLPNPCHGGAPCQNLEAGRFHCQCPPGRVGPTCA; listed as Homo sapiens)
25 mg/L: MIC [2]
12.5 µg/mL: MIC (μg/mL) K. pneumonia [3, 34] | MIC (μg/mL) A. hydrophila [4, 35] | MIC (μg/mL) P. mirabilis [6, 36] | MIC (μg/mL) M. catarrhalis [7, 37] | MIC (μg/mL) P. vulgaris [11, 41]
50 µg/mL: MIC (μg/mL) E. cloacae [1, 33] | MIC (μg/mL) E. coli BL21 [5, 32]
25 µg/mL: MIC (μg/mL) C. diversus [8, 38] | MIC (μg/mL) S. marcescens [9, 39] | MIC (μg/mL) P. aeruginosa [10, 40]
